This note sets out measurements from ChEMBL document CHEMBL1201862, “PubChem BioAssay data set” (2004).

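Exposure lasted 48 hours, with cells grown in 96-well plates and compounds tested at five concentrations. Here, GI50 denotes the concentration required for 50% inhibition of growth.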 Calls of active or inactive are those of the source. No stated cut-off is given here; in the data, active = GI50 up to about 1.1 µM and inactive = higher. Bounds are passed on as bounds.

Among the test systems are MOLT-4; HOP-92; ACHN; M14; HCT-116; K562; NCI/ADR-RES; COLO 205; RXF 393; UACC-257; IGROV-1; TK-10; OVCAR-5; HCT-15; HOP-62; A549; SK-OV-3; Hs-578T; EKVX; MCF7.
Holding throughout (assay): NCI anticancer screen, dose series, 48 h

With `Cc1cccc2nc3cc(O)cc(O)c3c(O)c12`, the GI50 in the assay with MOLT-4, in the assay with HOP-92, in the assay on ACHN, in the assay with M14, in the assay on HCT-116 and in the assay on K562 was > 10 µM (inactive) each time. Besides, the GI50 with NCI/ADR-RES, in the assay with COLO 205, in the assay with RXF 393, in the assay on UACC-257, with IGROV-1 and in the assay with TK-10 was > 10 µM (inactive) throughout. The GI50 in the assay on OVCAR-5 is > 10 µM (inactive); in the assay on HCT-15, more than 10 µM; with HOP-62, > 10 µM (inactive); in the assay on A549, > 10 µM (inactive); with SK-OV-3, > 10 µM (inactive); in the assay on Hs-578T, 2.86 µM (inactive).
In the case of `CCOC(=O)c1cc(-c2ccc([N+](=O)[O-])cc2)c([N+](=O)[O-])[nH]1`, the GI50 was 3.77 µM (inactive) with MOLT-4; 1.22 µM (inactive) with HOP-92; 3.28 µM (inactive) in the assay with ACHN; > 10 µM (inactive) in the assay on M14; 4.85 µM (inactive) in the assay on HCT-116; 3.48 µM (inactive) in the assay with K562. For the same compound, the GI50 is 3.1 µM (inactive) in the assay with NCI/ADR-RES; 2.18 µM (inactive) with RXF 393; 1.6 µM (inactive) in the assay with UACC-257; 5.26 µM (inactive) in the assay on IGROV-1; 2.51 µM (inactive) with EKVX; 4.22 µM (inactive) with TK-10. Also, the GI50 was 5.47 µM (inactive) in the assay with OVCAR-5; 2.9 µM with HCT-15; 2.88 µM (inactive) in the assay on A549; > 10 µM (inactive) in the assay on SK-OV-3; 3.34 µM (inactive) in the assay on Hs-578T.
Consider `COc1cccc(C=C(C#N)C#N)c1OC`, for which the GI50 in the assay on MOLT-4, in the assay with HOP-92, in the assay with ACHN, in the assay on M14, with HCT-116 and in the assay on K562 was > 100 µM (inactive) in each case. For the same compound, the GI50 in the assay on NCI/ADR-RES, with COLO 205, in the assay with RXF 393, in the assay on UACC-257, in the assay on IGROV-1 and in the assay on EKVX was > 100 µM (inactive) in each case. Moreover, the GI50 was > 100 µM (inactive) with TK-10; > 100 µM (inactive) in the assay on OVCAR-5; more than 100 µM in the assay on HCT-15; > 100 µM (inactive) in the assay with HOP-62; > 100 µM (inactive) in the assay with MCF7; > 100 µM (inactive) in the assay with A549. The GI50 with SK-OV-3 was 12.3 µM (inactive).
Take `CCOC(=O)c1cn(-c2ccccc2)c(=S)n2c1nc1ccccc12`: the GI50 was 4.65 µM (inactive) with MOLT-4; 13.9 µM (inactive) in the assay with HOP-92; 56.1 µM (inactive) with ACHN; 38.6 µM (inactive) in the assay on M14; 42.6 µM (inactive) with HCT-116; 18.3 µM (inactive) with K562. In addition, the GI50 in the assay with NCI/ADR-RES is 25.5 µM (inactive); in the assay on COLO 205, 30.3 µM (inactive); with RXF 393, 54.8 µM (inactive); in the assay with UACC-257, 40 µM (inactive); in the assay on IGROV-1, 42.5 µM (inactive); with EKVX it was 32.8 µM (inactive). Also, the GI50 in the assay with TK-10 is 96.8 µM (inactive); in the assay on OVCAR-5 it was > 100 µM (inactive); with HCT-15 it was 41.5 µM; with HOP-62, 53.2 µM (inactive); in the assay on MCF7, 35.5 µM (inactive); in the assay with A549, 42.9 µM (inactive). The GI50 with SK-OV-3 was > 100 µM (inactive).
